Results taken from US20150315218A1, “SALTS OF PRODRUGS OF PIPERAZINE AND SUBSTITUTED PIPERIDINE ANTIVIRAL AGENTS” (Bristol-Myers Squibb Company, priority 2004, published 2015).
Read-outs that look alike come from different tables or passages of the source.

What was measured:
[1] = Single-dose toxicokinetic and tolerability study of prodrugs in dogs; type: in vivo, dog; conditions: for concentration at 24 h / AUC(0-inf) / half-life: dog, plasma; for concentration at 24 h: oral, read-out: C24h; for AUC(0-inf) / half-life: po; for half-life: read-out: T1/2 (converted)
Experimental: A multi-phase study was conducted to evaluate the tolerability of the prodrug, Iab (monolysine salt) at dosages of 24, 90, or 240 mg/kg (free acid, molar equivalent to 19, 71, or 190 mg/kg of parent IVa, respectively) and the toxicokinetics of lab and IVa (4). Iab was administered to two female dogs/group once daily either as an aqueous solution (24 or 90 mg/kg) or dry-filled capsules (24, 90 [once and twice daily] or 240 mg/kg). The endpoints were: clinical signs, body weight, food consumption, and plasma toxicokinetics of lab and IVa. In all cases, a 1-week washout period was used between doses for all phases of the study. […]
On day 1, Icb was administered to one dog/sex/group once daily in dry-filled capsules at the above dosages. A 1-week washout period was used between doses in the study. On day 8, Icb was administered to one dog/sex/group once daily as an aqueous solution at 25 mg/kg or twice daily in dry-filled capsules at 46 or 125 mg/kg BID.

[2] = Single-dose oral toxicokinetic study of prodrugs in rats; type: in vivo, rat; conditions: for concentration at 24 h / Cmax / AUC / half-life: male, Sprague Dawley, rat, plasma; for concentration at 24 h: oral, read-out: C24h; for Cmax / AUC / half-life: po; for AUC: read-out: AUC from zero to ∞; for half-life: read-out: T1/2 (converted)
Experimental: A 1-day oral toxicokinetic study in rats was conducted using the prodrug Iab (monolysine salt). Iab was administered at dosages of 16, 72, and 267 mg/kg (free acid) by oral gavage to three male rats/group using water as the vehicle (solution formulation). The dosages of prodrug free acid correspond to IVa (parent) molar equivalent dosages of 13, 57, and 211 mg/kg, respectively. The endpoint evaluated was plasma toxicokinetics of Iab and IVa in the individual rats.
A 1-day oral toxicokinetic study in rats was conducted by using the prodrug Ibb (monolysine salt). Ibb was administered at dosages of 19, 64, and 236 mg/kg (free acid) by oral gavage to three male rats/group using water as the vehicle (solution formulation).
A 1-day oral toxicokinetic study in rats was conducted using the prodrug Icb (disodium salt). Icb was administered at dosages of 5, 25, and 200 mg/kg (free acid) by oral gavage to three male rats/group using water as the vehicle (solution formulation).

[3] = IV and PO pharmacokinetic studies of prodrug salts (Iab, Ibb, Icb) in the rat, with historical parent data; type: in vivo, Sprague-Dawley rats; conditions: for AUC: read-out: AUCtot; for Cmax: read-out: Cmax; for half-life: read-out: T1/2 (converted)
Experimental: (§1) All blood samples (0.3 mL) were colleted in microtainers containing K2EDTA (Becton Dickinson, Franklin Lakes, N.J.) and placed on chipped ice. After centrifugation, plasma was separated and stored at −20° C. until analysis. The mono-lysine salt of Iab (Form 3, Lot 1) was used for the pharmacokinetic studies. The dosing solutions of Iab were prepared in either sterile water (for IV administration in dogs and monkeys) or distilled water (for all other dose administration).
Male Sprague-Dawley rats (300-350 g, Hilltop Lab Animals, Inc., Scottsdale, Pa.) with cannulas implanted in the jugular vein were used. The rats were fasted overnight in the PO pharmacokinetic studies. Blood samples were collected from the jugular vein.
In the IV study, Iab was delivered at 1.4 mg/kg (free acid, or 1.1 mg/kg of IVa equivalent) as a bolus over 0.5 min (n=3).
In the PO study, Iab was administered at 7.9 mg/kg (free acid, or 6.3 mg/kg of IVa equivalent) by oral gavage (n=3). The concentration of the dosing solution was 4.0 mg/mL, and the dosing volume was 2 mL/kg.
The pharmacokinetic parameters of Iab and IVa were calculated by Non-Compartmental Analysis using the […]™ software program (version 4.0.2, InnaPhase Co., Philadelphia, Pa.). The Cmax and Tmax values were recorded directly from experimental observations. The AUC0-n and AUCtot values were calculated using the mixed log-linear trapezoidal summations. The total body clearance (Cl), mean residence time (MRT), and the steady state volume of distribution (Vss) were also calculated after intravenous administration. The absolute oral bioavailability (expressed as %) was estimated by taking the ratio of dose-normalized AUC values after oral doses to those after intravenous doses.
as §1, with “Ibb” for “Iab”, “3)” for “3, Lot 1)”
(§2) The Cmax and Tmax values were recorded directly from experimental observations. The AUC0-n and AUCtot values were calculated using the mixed log-linear trapezoidal summations. The total body clearance (Cl), mean residence time (MRT), and the steady state volume of distribution (Vss) were also calculated after intravenous administration. The absolute oral bioavailability (expressed as %) was estimated by taking the ratio of dose-normalized AUC values after oral doses to those after intravenous doses.
In the IV study, Icb was delivered at 1.4 mg/kg (free acid, or 1.1 mg/kg of IVe equivalent) as a bolus over 0.5 min (n=3).
In the PO study, Icb was administered at 6.9 mg/kg (free acid, or 5.6 mg/kg of IVe equivalent) by oral gavage (n=3).
as §2

[4] = female, 25 mg/kg, dog 2201F, day 1, Ibb 25 mg/kg QD dry-filled capsules
[5] = female, 25 mg/kg, dog 2201F, day 8, Ibb 25 mg/kg QD aqueous solution
[6] = female, 92 mg/kg, dog 3201F, day 1, Ibb 92 mg/kg QD dry-filled capsules
[7] = female, 250 mg/kg, dog 4201F, day 1, Ibb 250 mg/kg QD dry-filled capsules
[8] = male, 25 mg/kg, dog 2101M, day 1, Ibb 25 mg/kg QD dry-filled capsules
[9] = male, 25 mg/kg, dog 2101M, day 8, Ibb 25 mg/kg QD aqueous solution
[10] = male, 92 mg/kg, dog 3101M, day 1, Ibb 92 mg/kg QD dry-filled capsules
[11] = male, 250 mg/kg, dog 4101M, day 1, Ibb 250 mg/kg QD dry-filled capsules

Vdss ([3]; IV IVb 1 mg/kg, historical IVb): 0.49 ± 0.26 L/kg | bioavailability ([3]; Sprague-Dawley (rats), breed of dogs and monkeys not stated, plasma, po, range over rats, dogs and monkeys, read-out: oral bioavailabilities of parent after administration of prodrug): 50 to 310% | bioavailability ([3]; Sprague-Dawley, plasma, historical parent, PO 5 mg/kg, read-out: Bioavailability (%)): 60% | Tmax ([3]; Sprague-Dawley, plasma, historical parent, PO 5 mg/kg, read-out: Tmax (hr), PO): 4.7 h | AUC ([3]; in vivo, po, 5 mg/kg): 86 ± 33 µM·h | Cmax ([3]; in vivo, po, 5 mg/kg): 9500 ± 2800 nM | half-life ([3]; male, Sprague-Dawley, plasma, iv, […]): 3 ± 1.8 h | bioavailability ([3]; male, Sprague-Dawley, plasma, oral prodrug, calculated from historical IV data of parent, read-out: Bioavailability (%) of parent from prodrug): 50% | Tmax ([3]; male, Sprague-Dawley, plasma, parent after oral prodrug (~5-6 mg/kg parent equivalent), read-out: Tmax (hr), PO): 0.83 h | Cmax ([3]; male, Sprague-Dawley, plasma, po, 6.6 mg/kg): 19000 ± 1800 nM | Tmax ([3]; male, Sprague-Dawley, plasma, po, 6.6 mg/kg, read-out: Tmax): 0.83 ± 0.14 h | AUC ([3]; plasma, iv, 1 mg/kg): 24 ± 3.2 µM·h | MRT ([3]; plasma, iv, 1 mg/kg, read-out: MRT): 5.6 ± 3.6 h | half-life ([3]; plasma, iv, 1 mg/kg): 5.9 ± 4.9 h | concentration at 24 h ([3]; plasma, oral, 5 mg/kg, read-out: C-24 hr): 160 nM | bioavailability ([3]; plasma, po, 5 mg/kg, read-out: Bioavailability): 60% | half-life ([3]; plasma, po, 5 mg/kg): 3.7 ± 0.86 h | Tmax ([3]; plasma, po, 5 mg/kg, read-out: Tmax): 4.7 ± 1.2 h
Compound: O=C(C(=O)N1CCN(C(=O)c2ccccc2)CC1)c1c[nH]c2c(-n3ccnn3)ncc(F)c12 [IVb]
time post-second dose at which mean Cmax of parent was achieved ([1]; dogs, BID dosing of prodrug): 1 to 2 h | time post-dose at which mean Cmax of parent was achieved ([1]; dogs, once daily (QD) dosing of prodrug): 1 to 4 h | concentration at 24 h [1, 4]: 688 nM | concentration at 24 h [1, 5]: 107 nM | concentration at 24 h ([1]; female, 46 mg/kg, dog 3201F, day 8, Ibb 46 mg/kg BID dry-filled capsules): 307 nM | concentration at 24 h [1, 6]: 202 nM | concentration at 24 h ([1]; female, 125 mg/kg, dog 4201F, day 8, Ibb 125 mg/kg BID dry-filled capsules): 1960 nM | concentration at 24 h [1, 7]: 704 nM | AUC(0-inf) [1, 4]: 136 µM·h | half-life [1, 4]: 4.5 h | AUC(0-inf) [1, 5]: 139 µM·h | AUC(0-inf) ([1]; female, 46 mg/kg, dog 3201F, day 8, Ibb 46 mg/kg BID dry-filled capsules, emesis): 1050 µM·h | AUC(0-inf) ([1]; female, 92 mg/kg, dog 3201F, day 1, Ibb 92 mg/kg QD dry-filled capsules, emesis): 329 µM·h | half-life [1, 6]: 2.3 h | AUC(0-inf) ([1]; female, 125 mg/kg, dog 4201F, day 8, Ibb 125 mg/kg BID dry-filled capsules, emesis): 978 µM·h | AUC(0-inf) ([1]; female, 250 mg/kg, dog 4201F, day 1, Ibb 250 mg/kg QD dry-filled capsules, emesis): 745 µM·h | half-life [1, 7]: 3.2 h | concentration at 24 h [1, 8]: 8 nM | concentration at 24 h [1, 9]: 547 nM | concentration at 24 h ([1]; male, 46 mg/kg, dog 3101M, day 8, Ibb 46 mg/kg BID dry-filled capsules): 10600 nM | concentration at 24 h [1, 10]: 1900 nM | concentration at 24 h ([1]; male, 125 mg/kg, dog 4101M, day 8, Ibb 125 mg/kg BID dry-filled capsules): 54200 nM | concentration at 24 h [1, 11]: 2610 nM | AUC(0-inf) [1, 8]: 259 µM·h | half-life [1, 8]: 1.5 h | AUC(0-inf) [1, 9]: 324 µM·h | half-life [1, 9]: 3.3 h | AUC(0-inf) ([1]; male, 46 mg/kg, dog 3101M, day 8, Ibb 46 mg/kg BID dry-filled capsules, emesis): 478 µM·h | AUC(0-inf) ([1]; male, 92 mg/kg, dog 3101M, day 1, Ibb 92 mg/kg QD dry-filled capsules, emesis): 111 µM·h | half-life [1, 10]: 3.6 h | AUC(0-inf) ([1]; male, 125 mg/kg, dog 4101M, day 8, Ibb 125 mg/kg BID dry-filled capsules, emesis): 1390 µM·h | AUC(0-inf) ([1]; male, 250 mg/kg, dog 4101M, day 1, Ibb 250 mg/kg QD dry-filled capsules, emesis): 334 µM·h | half-life [1, 11]: 4.1 h | concentration at 24 h ([2]; 19 mg/kg (free acid)): 48 nM | concentration at 24 h ([2]; 64 mg/kg (free acid)): 290 nM | concentration at 24 h ([2]; 236 mg/kg (free acid)): 29000 nM | Cmax ([2]; 19 mg/kg): 58000 nM | AUC ([2]; 19 mg/kg): 283 µM·h | half-life ([2]; 19 mg/kg): 2.1 h | Cmax ([2]; 64 mg/kg): 135000 nM | AUC ([2]; 64 mg/kg): 997 µM·h | half-life ([2]; 64 mg/kg): 2.1 h | Cmax ([2]; 236 mg/kg): 290000 nM | AUC ([2]; 236 mg/kg): 3700 µM·h | half-life ([2]; 236 mg/kg): 5.8 h | time post-dose at which mean maximum plasma concentration (Cmax) was achieved ([2]; rats, single oral dose of prodrug): 1 to 3 h
